The results in this text go back to US7247709B2, “Mitogenic oxygenases” (Emory University, priority 1998, dated 2007).

One test addresses T1, human mox1 (Homo sapiens, UniProt Q9Y5S8, I173V).
T1 construct: expressed in transfected cells
T1 sequence (Q9Y5S8 1-564 I173V): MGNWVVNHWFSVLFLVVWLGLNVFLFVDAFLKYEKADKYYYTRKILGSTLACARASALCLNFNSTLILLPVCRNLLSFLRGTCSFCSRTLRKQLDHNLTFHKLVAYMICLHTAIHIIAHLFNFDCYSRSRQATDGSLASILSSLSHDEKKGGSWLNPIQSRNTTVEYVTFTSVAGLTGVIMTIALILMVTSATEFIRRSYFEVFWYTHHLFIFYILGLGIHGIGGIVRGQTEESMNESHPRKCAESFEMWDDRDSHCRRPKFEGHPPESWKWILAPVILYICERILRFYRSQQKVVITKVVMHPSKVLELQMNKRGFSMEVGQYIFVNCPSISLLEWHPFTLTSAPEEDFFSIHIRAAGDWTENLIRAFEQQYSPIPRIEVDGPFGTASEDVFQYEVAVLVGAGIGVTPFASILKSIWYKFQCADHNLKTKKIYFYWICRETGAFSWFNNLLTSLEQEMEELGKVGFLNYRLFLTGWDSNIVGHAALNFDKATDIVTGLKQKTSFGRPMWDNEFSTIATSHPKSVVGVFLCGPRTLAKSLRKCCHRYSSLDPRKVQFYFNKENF
T1 sequence (Q61462 1-192 partner): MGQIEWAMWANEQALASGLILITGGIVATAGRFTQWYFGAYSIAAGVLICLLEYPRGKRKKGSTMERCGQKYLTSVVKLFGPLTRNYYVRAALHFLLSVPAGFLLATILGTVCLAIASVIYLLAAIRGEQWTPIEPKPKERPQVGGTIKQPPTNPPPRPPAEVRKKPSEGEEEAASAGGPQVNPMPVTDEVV
Put plainly: NADPH-dependent superoxide generation, lucigenin luminescence assay in lysates of mox1-transfected NIH 3T3 cells. The test is classed as biochemical. The conditions noted are these: lysates of stably mox1-transfected NIH 3T3 cell lines. The procedure: In one embodiment of the present invention, NIH 3T3 cells stably transfected with the human mox1 gene (SEQ ID NO:1) were analyzed for superoxide generation using the lucigenin (Bis-N-methylacridinium luminescence assay (Sigma, St. Louis, Mo., Li et al. (1998) J. Biol. Chem. 273, 2015-2023). Cells were washed with cold HANKS' solution and homogenized on ice in HANKS' buffer containing 15% sucrose using a Dounce homogenizer. Cell lysates were frozen immediately in a dry ice/ethanol bath. For the assay, 30 μg of cell lysate was mixed with 200 μM NADPH and 500 μM lucigenin. Luminescence was monitored using a LumiCounter (Packard) at three successive one minute intervals and the highest value was used for comparison. Protein concentration was determined by the Bradford method.
Superoxide generation was monitored in lysates from some of the stably transfected cell lines and was compared with superoxide generation by the untransfected NIH 3T3 cell lysates. Cell lines 26, 27, and 28 gave the highest degree of morphological changes by microscopic examination corresponding to the highest degree of superoxide generation. The luminescent signal was inhibited by superoxide dismutase and the general flavoprotein inhibitor diphenylene iodonium, but was unaffected by added recombinant human p47phox, p67phox and Rac1 (GTP-γS), which are essential cytosolic factors for the phagocyte respiratory-burst oxidase.

In test [1] the test system is superoxide-generating NADPH oxidase activity. Put plainly: Superoxide generation in lysates of Ras-transformed fibroblasts, lucigenin luminescence assay. The format is biochemical. The conditions noted are these: for RLU/5 μg protein, plus DPI: 1 μM DPI; for inhibition of luminescence / activity: lysates of Table 6; for RLU/5 μg protein, plus SOD: 100 U SOD. Here is the method: Lysates from each of these lines were then prepared and tested for their ability to generate superoxide. For each cell line, cells were washed with cold HANKS' balanced salt solution (HBSS), collected by centrifugation, kept on dry-ice for more than 30 min, and disrupted by suspending in low salt buffer (LSB; 50 mM Tris/HCl, pH 7.5, 1 mM PMSF, and protease cocktail from Sigma) and passing through a syringe needle (18 gauge) ten times. Cell lysates were frozen in dry-ice immediately after determining the protein concentration. […] Luminescence of the reaction mixture was monitored for 0.5 second by LumiCounter (Packard) for four times at 3 second intervals. RLU in Table 5 refers to relative luminescence units.

Another test relates to r-p65mox mRNA. Put plainly: Expression of r-p65mox mRNA in rat aortic smooth muscle cells (Northern blot). The test is classed as cell-based. The procedure:
Human multiple tissue northern (MTN) Blot I and Human MTN Blot IV (ClonTech) membranes were hybridized with the putative coding region of the PCR-mox vector at 68° C. for several hours. The mox coding region was labeled by random priming with [α-^32P]dCTP (10 μCi) using the Prime-It II kit (Stratagene). For analysis of mox1 expression in cell lines, total RNA was prepared from 10^6 cells using the High Pure RNA Isolation Kit (Boehringer Mannheim) or RNeasy kit (Quiagen). Total RNA (10-20 μg) was separated on a 1% agarose formaldehyde mini-gel and transferred to a Nytran filter (Biorad) and immobilized by ultraviolet cross-linking.
Using the partial cDNA clone from rat, we have examined cultured rat aortic smooth muscle cells for expression of message for r-p65mox. We have observed the mRNA for r-p65mox in these cells. It has been previously reported (Griendling et al. (1994) Circ. Res. 74, 1141-1148; Fukui et al. (1997) Circ. Res. 80, 45-51; Ushio-Fukai et al. (1996) J. Biol. Chem. 271, 23317-23321) that in vitro or in vivo treatment with angiotensin II (AII) is a growth stimulus for vascular smooth muscle cells, and that AII induces increased superoxide generation in these cells. Platelet-derived growth factor (PDGF) and PMA are proliferative signals for vascular smooth muscle cells. We observed that the mRNA for r-p65mox was induced approximately 2-3 fold by angiotensin II (100 nM), corresponding to the increased level of superoxide generation. Thus, the increased superoxide generation in these cells correlates with increased expression of the mRNA for this enzyme. […] 28S RNA was used as a control for RNA recovery.

Test [2] concerns NIH 3T3 cells transfected with the mox1 cDNA (SEQ ID NO:1). Put plainly: Nitro blue tetrazolium reduction by superoxide generated by intact NIH 3T3 cells transfected with mox1 cDNA. The test is classed as cell-based. As to conditions: 600 units superoxide dismutase. Here is the method: Superoxide generation by intact cells was monitored by using superoxide dismutase-sensitive reduction of nitroblue tetrazolium. NEF2 (vector alone control), YA26 (mox1 (SEQ ID NO:1)-transfected) and YA28 (mox1 (SEQ ID NO:1)-transfected) cells were plated in six well plates at 500,000 cells per well. About 24 hours later, medium was removed from cells and the cells were washed once with 1 mL Hanks solution (Sigma, St. Louis, Mo.). About 1 mL of filtered 0.25% Nitro blue tetrazolium (NBT, Sigma) was added in Hanks without or with 600 units of superoxide dismutase (Sigma) and cells were incubated at 37° C. in the presence of 5% CO2. After 8 minutes the cells were scraped and pelleted at more than 10,000 g. The pellet was re-suspended in 1 mL of pyridine (Sigma) and heated for 10 minutes at 100° C. to solubilize the reduced NBT. The concentration of reduced NBT was determined by measuring the absorbance at 510 nm, using an extinction coefficient of 11,000 M^−1cm^−1. Some wells were untreated and used to determine cell number.

Regarding `c1ccc2c(c1)[I+]c1ccccc1-2` [DPI, diphenyleneiodonium], the “effect of added agent on the luminescent signal” value (“effect of added agent” below) at human mox1 is recorded as “inhibited”. Further, the “RLU/5 μg protein, plus DPI” value in test [1] (V12-Ras-4 lysate) came out at 36 RLU/5 μg protein; in test [1] (V12-Ras-7 lysate) it was 39 RLU/5 μg protein; in test [1] (V12-Ras-8 lysate), 35 RLU/5 μg protein; in test [1] (Vector Control lysate), 48 RLU/5 μg protein. Further, in test [1], the “inhibition of luminescence / activity” value is “completely inhibited”.
PDGF: the “induction of rat mox1 message, quantitation by densitometry” value in the test on r-p65mox mRNA (6 and 12 hour time points) is listed as around 4 fold. For the same molecule, in the test on r-p65mox mRNA (PDGF 20 ng/ml), the “increase of mRNA for r-p65mox” value is given as at least 2 fold. In addition, the “Northern hybridization of mox1 mRNA from rat aortic smooth muscle cells” value with r-p65mox mRNA (within 12 hours after treatment) is “increased roughly two-fold”.
In the case of “angiotensin II (DRVYIHPF; Angiotensin-2; UniProt P01019 25-32, looked up) [growth stimulus for vascular smooth muscle cells]”, the “induction of rat mox1 message, quantitation by densitometry” value with r-p65mox mRNA (12 hour time point) was “approximately 2 fold”.
Consider superoxide dismutase, for which, on human mox1, the “effect of added agent” value is “inhibited”. In addition, the “NBT Reduction, +SOD” value in test [2] (YA26 (mox1) cells) is on record as 3.4 ± 0.1 nmols/10^6 cells; in test [2] (YA28 (mox1) cells), 3.4 ± 0.3 nmols/10^6 cells; in test [2] (vector control cells) it was 2.1 ± 0.5 nmols/10^6 cells. The “RLU/5 μg protein, plus SOD” value in test [1] (V12-Ras-4 lysate) was determined as 2128 RLU/5 μg protein; in test [1] (V12-Ras-7 lysate), 578 RLU/5 μg protein; in test [1] (V12-Ras-8 lysate) it was 2000 RLU/5 μg protein; in test [1] (Vector Control lysate), 154 RLU/5 μg protein. Besides, the “inhibition of luminescence / activity” value in test [1] is “partially inhibited”.

B1: p47phox: recombinant human p47phox, essential cytosolic factor for the phagocyte respiratory-burst oxidase (protein, UniProt P14598 1-390, looked up)
Neutrophil cytosol factor 1: MGDTFIRHIALLGFEKRFVPSQHYVYMFLVKWQDLSEKVVYRRFTEIYEFHKTLKEMFPIEAGAINPENRIIPHLPAPKWFDGQRAAENRQGTLTEYCSTLMSLPTKISRCPHLLDFFKVRPDDLKLPTDNQTKKPETYLMPKDGKSTATDITGPIILQTYRAIANYEKTSGSEMALSTGDVVEVVEKSESGWWFCQMKAKRGWIPASFLEPLDSPDETEDPEPNYAGEPYVAIKAYTAVEGDEVSLLEGEAVEVIHKLLDGWWVIRKDDVTGYFPSMYLQKSGQDVSQAQRQIKRGAPPRRSSIRNAHSIHQRSRKRLSQDAYRRNSVRFLQQRRRQARPGPQSPGSPLEEERQTQRSKPQPAVPPRPSADLILNRCSESTKRKLASAV
Take B1: the “effect of added agent” value with human mox1 is recorded as “unaffected”.

B2: p67phox: recombinant human p67phox, essential cytosolic factor for the phagocyte respiratory-burst oxidase (protein, UniProt P19878 1-526, looked up)
Neutrophil cytosol factor 2: MSLVEAISLWNEGVLAADKKDWKGALDAFSAVQDPHSRICFNIGCMYTILKNMTEAEKAFTRSINRDKHLAVAYFQRGMLYYQTEKYDLAIKDLKEALIQLRGNQLIDYKILGLQFKLFACEVLYNIAFMYAKKEEWKKAEEQLALATSMKSEPRHSKIDKAMECVWKQKLYEPVVIPVGKLFRPNERQVAQLAKKDYLGKATVVASVVDQDSFSGFAPLQPQAAEPPPRPKTPEIFRALEGEAHRVLFGFVPETKEELQVMPGNIVFVLKKGNDNWATVMFNGQKGLVPCNYLEPVELRIHPQQQPQEESSPQSDIPAPPSSKAPGRPQLSPGQKQKEEPKEVKLSVPMPYTLKVHYKYTVVMKTQPGLPYSQVRDMVSKKLELRLEHTKLSYRPRDSNELVPLSEDSMKDAWGQVKNYCLTLWCENTVGDQGFPDEPKESEKADANNQTTEPQLKKGSQVEALFSYEATQPEDLEFQEGDIILVLSKVNEEWLEGECKGKVGIFPKVFVEDCATTDLESTRREV
On to B2, for which, in the test with human mox1, the “effect of added agent” value is listed as “unaffected”.
